The values that follow come from patent US20230210813A1, “METHODS AND PHARMACEUTICAL COMPOSITIONS FOR THE TREATMENT OF CHRONIC KIDNEY DISEASE” (INSERM (INSTITUTE NATIONAL DE LA SANTÉ ET DE LA RECHERCHE …, priority 2020, published 2023).

The conditions of series [1]: fumarate salt; cited from earlier work.
Series [2] concerns Ins2Akita mice (DKD). The experiment in a line: DMAPT versus ramipril treatment of diabetic Ins2Akita mice (second series, FIG. 1). The format is in vivo, mouse. Conditions: for urinary albumin/creatinine ratio (ACR): 10 mg/kg/d for 2 months from 2 months of age, vs untreated DKD, FIG. 1A; for glomerular injury (PAS staining) / glomerular area / fibrosis (Masson trichrome staining) / glycemia / body weight: 10 mg/kg/d for 2 months; for glomerular injury (PAS staining): FIG. 1B; for glomerular area: FIG. 1C; for fibrosis (Masson trichrome staining): FIG. 1D; for glycemia: FIG. 1E; for body weight: FIG. 1F. The method, then: (§1) Male C57BL/6-Ins2Akita/J (Ins2Akita) and C57BL/6J (WT) mice (Charles River) were housed with unrestricted access to water and were maintained on a 12-h light-dark cycle in a pathogen-free environment on standard mouse chow. All experiments were conducted in accordance with the Guide for the care and use of laboratory animals of the National Institute of Health, eighth edition and the French Institute of Health guidelines for the care and use of laboratory animals. The project was approved by the local (Inserm/UPS US006 CREFRE) and national ethics committees (ethics committee for animal experiment, CEEA122; Toulouse, France; approval 02867.01).
(§2) In a first series of experiments, 2 months old mice were treated with or without ACEi ramipril (10 mg/kg/d in drinking water) for 2 months. In a second series of experiments 2 months old mice were treated with or without ACEi ramipril as in the first series or with dimethylaminoparthenolide monofumarate (DMAPT, 10 mg/kg/d by gavage) for 2 months. In each series of experiments, urine was collected in metabolic cages for 12 h, few days before sacrifice.
Right kidney cortexes were fixed in Carnoy's solution for 24 h, dehydrated in successive baths with increasing alcohol concentrations, embedded in paraffin and 2 μm sections were cut and mounted, and stained with either periodic acid-Schiff (PAS) or Masson trichrome. Stained sections were scanned using a Nanozoomer 2.0 RS (Hamamatsu Photonics SARL) and treated with the Morpho-expert image-analysis software (version 1.00, Explora Nova) for renal corpuscle surface quantification. At least 50 glomeruli including superficial and […] cortical area, were examined for each animal. The extent of glomerular injury was expressed as the percentage of glomerular area fraction occupied by PAS positive matrix^3.
(§3) Urinary albumin concentration was measured by ELISA using the AlbuWell kit (WAK-Chemie Medical GmbH, Steinbach, Germany). Urinary creatinine concentration was measured by the colorimetric method of Jaffe according to the protocol Creatinine Assay Kit (Bio Assay Systems). Blood glucose levels were measured in caudal blood from fasted awake mice using a glucometer (Glucometer Elite XL; Bayer Healthcare, Elkhart, Ind.).
(§4) Comparison between 2 groups of values was implemented using a two-tailed unpaired Welch's t-tests. Comparison between more than 2 groups, was implemented using an ordinary one-way ANOVA followed by Homl-Sidak's multiple comparisons test was used. P<0.05 was considered statistically significant. For the proteomic data the P values were adjusted for the false discovery rate (Benjamini-Hochberg).

For series [3] the following is noted: cited from earlier work.
The test system of series [4] is histone deacetylase (HDAC). Conditions: independent of NF kappa B; cited from earlier work.
For series [5], the system named is immune glomerulonephritis in rat. Conditions: cited from earlier work.
The test system of series [6] is NF kappa B transcription factor complex. Conditions: cited from earlier work.
The subject of series [7] is type 2 diabetic db/db mice. Conditions: cited from earlier work.
Series [8] relates to patients with cancer. Conditions: Phase I, standardized doses; cited from earlier work.
The subject of series [9] is Ins2Akita mice (DKD). The experiment in a line: Ramipril treatment of diabetic Ins2Akita mice (first series). The format is in vivo, mouse. The method, then: as §1, §2, §3, §4
Where [10] appears, read: ramipril 10 mg/kg/d in drinking water for 2 months.

On to `C/C1=C/CC[C@@]2(C)O[C@@H]2[C@H]2OC(=O)[C@H](CN(C)C)[C@@H]2CC1` [DMAPT, (4E,8S)-8-[(dimethylamino)methyl]-2,3,6,7,7aS,8,10aS,10bR-octahydro-1aR,5-dimethyl-oxireno[9,10]cyclodeca[1,2-b]furan-9(1aH)-one], for which, in series [1], the oral bioavailability entry is reported as “orally bioavailable”. In addition, in [2], the “urinary albumin/creatinine ratio (ACR)” value was “significant reduction”, the “glomerular injury (PAS staining)” value is “significantly reduced”, the glomerular area entry is listed as “tended to reduce glomerular area without reaching significance” and the “fibrosis (Masson trichrome staining)” value is recorded as “significantly reduced”. In series [2], the glycemia result is “Neither glycemia (FIG. 1E) nor body weight (FIG. 1F) were significantly influenced” and the body weight entry is reported as “Neither glycemia (FIG. 1E) nor body weight (FIG. 1F) were significantly influenced”. The water-solubility result in series [3] is given as “water-soluble”. In addition, the HDAC activity result in series [4] was “inhibit histone deacetylase (HDAC) activity”.

Take `C=C1C(=O)O[C@@H]2[C@H]3O[C@]3(C)CC/C=C(\C)CC[C@@H]12` [parthenolide, (1aR,4E,7aS,10aS,10bR)-2,3,6,7,7a,8,10a,10b-octahydro-1a,5-dimethyl-8-methylene-oxireno[9,10]cyclodeca[1,2-b]furan-9(1aH)-one]: the “proteinuria and renal injury” value in series [5] is “beneficial impact”. For the same compound, the water-solubility entry in series [3] is recorded as “poor water-solubility”. The “activity of the NF kappa B transcription factor complex” value in series [6] was “inhibiting the activity”. The “renal inflammation and insulin resistance” value in [7] is “able to alleviate renal inflammation and insulin resistance”. For the same compound, the “tolerability / dose-limiting toxicity” value in [8] was “well tolerated without dose-limiting toxicity”.

With `CCOC(=O)[C@H](CCc1ccccc1)N[C@@H](C)C(=O)N1[C@H](C(=O)O)C[C@@H]2CCC[C@@H]21` [ramipril], in series [2], the “urinary albumin/creatinine ratio (ACR)” value was “significant reduction”, the “glomerular injury (PAS staining)” value is reported as “no significant influence”, the glomerular area entry is “no significant influence” and the “fibrosis (Masson trichrome staining)” value is given as “no significant influence”. Besides, in series [2], the glycemia result is “Neither glycemia (FIG. 1E) nor body weight (FIG. 1F) were significantly influenced” and the body weight entry is recorded as “Neither glycemia (FIG. 1E) nor body weight (FIG. 1F) were significantly influenced”. Also, in [9] (setting [10]), the body weight result is on record as “no influence” and the glycemia entry is reported as “slightly but significantly reduced”. For the same compound, the ACR entry in series [9] (ramipril 10 mg/kg/d in drinking water from 2 months of age for 2 months) is “significantly reduced”.
